The target of one experiment is NK1 receptor (Homo sapiens, UniProt P25103). Put plainly: neurokinin receptor binding assay, NK1. An excerpt: (§1) The in vitro and in vivo activity of the compounds of formula I can be determined by various procedures known in the art, such as a test for their ability to inhibit the activity of the NK1 agonist Substance P, an isolated hamster trachea NK2 assay, a test of the effect of NK1 antagonists on Substance P-induced airway microvascular leakage, measurement of NK2 activity in vivo in guinea pigs, measurement of bronchoconstriction due to NKA, and neurokinin receptor binding assay(s). NK3 activity is determined by following a procedure similar to that described in the literature, e.g., Molecular Pharmacol., 48 (1995), p. 711-716.
Chain of NK1 receptor (P25103 whole entry, species assumed): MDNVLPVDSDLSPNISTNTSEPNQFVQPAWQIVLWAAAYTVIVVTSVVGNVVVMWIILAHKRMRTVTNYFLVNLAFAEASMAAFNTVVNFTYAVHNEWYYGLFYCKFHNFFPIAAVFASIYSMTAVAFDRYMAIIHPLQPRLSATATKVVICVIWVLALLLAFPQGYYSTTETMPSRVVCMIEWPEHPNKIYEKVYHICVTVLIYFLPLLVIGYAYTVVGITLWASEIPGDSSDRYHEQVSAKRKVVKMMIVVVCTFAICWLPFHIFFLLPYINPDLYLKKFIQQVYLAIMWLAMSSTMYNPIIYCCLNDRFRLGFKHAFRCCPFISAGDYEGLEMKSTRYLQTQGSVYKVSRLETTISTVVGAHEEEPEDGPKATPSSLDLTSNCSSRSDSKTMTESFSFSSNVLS
(§2) % Inhibition of neurokinin agonist activity is the difference between the percent of maximum specific binding (MSB) and 100%. The percent of MSB is defined by the following equation, wherein “dpm” is disintegrations per minute: [formula]

The next experiment addresses T1, NK2 receptor (Homo sapiens, UniProt P21452).
T1 sequence (P21452 1-398): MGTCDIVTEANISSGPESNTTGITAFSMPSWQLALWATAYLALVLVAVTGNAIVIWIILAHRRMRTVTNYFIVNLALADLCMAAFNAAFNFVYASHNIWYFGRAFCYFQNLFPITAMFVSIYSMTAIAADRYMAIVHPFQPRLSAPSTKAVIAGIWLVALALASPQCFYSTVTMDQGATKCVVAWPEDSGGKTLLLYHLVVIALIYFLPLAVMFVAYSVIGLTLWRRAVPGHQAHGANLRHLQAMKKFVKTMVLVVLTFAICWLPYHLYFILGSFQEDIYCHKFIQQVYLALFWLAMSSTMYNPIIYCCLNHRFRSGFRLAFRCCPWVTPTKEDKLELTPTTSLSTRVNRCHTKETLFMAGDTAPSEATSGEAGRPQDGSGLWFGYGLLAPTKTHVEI
Description: neurokinin receptor binding assay, NK2.
Text: The in vitro and in vivo activity of the compounds of formula I can be determined by various procedures known in the art, such as a test for their ability to inhibit the activity of the NK1 agonist Substance P, an isolated hamster trachea NK2 assay, a test of the effect of NK1 antagonists on Substance P-induced airway microvascular leakage, measurement of NK2 activity in vivo in guinea pigs, measurement of bronchoconstriction due to NKA, and neurokinin receptor binding assay(s).
as §2

In another experiment the target is T2, NK3 receptor (Homo sapiens, UniProt P29371).
T2 sequence (P29371 1-465): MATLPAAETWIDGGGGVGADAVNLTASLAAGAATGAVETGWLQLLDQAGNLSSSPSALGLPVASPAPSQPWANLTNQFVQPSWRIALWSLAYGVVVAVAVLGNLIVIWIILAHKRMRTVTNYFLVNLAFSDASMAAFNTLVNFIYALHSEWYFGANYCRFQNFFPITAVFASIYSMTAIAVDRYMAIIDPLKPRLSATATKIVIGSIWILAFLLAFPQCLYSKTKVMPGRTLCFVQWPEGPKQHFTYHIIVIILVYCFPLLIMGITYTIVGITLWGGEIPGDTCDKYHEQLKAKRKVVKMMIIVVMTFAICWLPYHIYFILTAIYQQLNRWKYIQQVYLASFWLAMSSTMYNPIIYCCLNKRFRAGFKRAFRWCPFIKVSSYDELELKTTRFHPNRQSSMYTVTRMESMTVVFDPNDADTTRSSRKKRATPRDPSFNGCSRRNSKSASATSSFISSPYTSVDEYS
Put plainly: neurokinin receptor binding assay, NK3.
Text: as §1, §2

This note sets out measurements from US6534502B2, “Substituted oximes and hydrazones as neurokinin antagonists” (Schering Corporation, priority 1998, dated 2003).

The term Ki denotes a measure of affinity in units of concentration, obtained from inhibition or displacement. Turning to `CN(C/C(=N\OC/C(N)=N/O)C(CCN1CCC(N2CCCN(C/C(N)=N/O)C2=O)CC1)c1ccc(Cl)c(Cl)c1)C(=O)c1cc(Cl)cc(Cl)c1` (stereo not shown) [Example 16], the Ki at NK1 receptor turned out to be 0.4 nM; at NK2 receptor it was 0.4 nM; on NK3 receptor, 0.7 nM.
On to `CO/N=C(\CN(C)C(=O)c1ccc2c(c1)OCO2)[C@H](CCN1CCC(N2CCCNC2=O)CC1)c1ccc(Cl)c(Cl)c1` [Example 7F], for which the Ki is 1.8 nM on NK1 receptor, 0.4 nM at NK2 receptor and 3.8 nM on NK3 receptor.
`CO/N=C(\CN(C)C(=O)c1cc(Cl)cc(Cl)c1)[C@H](CCN1CCC(n2c(=O)[nH]c3ccccc32)CC1)c1ccc(Cl)c(Cl)c1` [Example 18A] came in with a Ki on NK3 receptor of 9.8 nM.
Turning to `CO/N=C(\CN(C)C(=O)c1cc(Cl)cc(Cl)c1)[C@H](CCN1CCC(N2CC(=O)N[C@H](CC(N)=O)C2=O)CC1)c1ccc(Cl)c(Cl)c1` [Example 11A], the results for the Ki at NK1 receptor, on NK2 receptor and on NK3 receptor were 0.8 nM, 1 nM and 1.9 nM, respectively.
`CO/N=C(\CN(C)C(=O)c1cc(Cl)cc(Cl)c1)[C@H](CCN1CCC(N2CCCN(Cc3nn[nH]n3)C2=O)CC1)c1ccc(Cl)c(Cl)c1` [Example 6S] showed a Ki on NK3 receptor of 2.1 nM.
Regarding `CON=C(CN(C)C(=O)c1cc(Cl)cc(Cl)c1)C(CCN1CCC(N2CCCN(C(C)(C)C(=O)O)C2=O)CC1)c1ccc(Cl)c(Cl)c1` (stereo not shown) [Example 6M], the Ki is 0.9 nM on NK1 receptor, 0.5 nM at NK2 receptor and 0.3 nM at NK3 receptor.
For `CON=C(CN(C)C(=O)c1cc(Cl)cc(Cl)c1)C(CCN1CCC(N2C(=O)c3ccccc3C2C)CC1)c1ccc(Cl)c(Cl)c1` (stereo not shown) [Example 5B], the Ki at NK1 receptor worked out at 0.9 nM; at NK2 receptor, 2.8 nM.
Regarding `CO/N=C(\CN(C)C(=O)c1cc(Cl)cc(Cl)c1)[C@H](CCN1CCC(N2CCCN(Cc3ccc[n+]([O-])c3)C2=O)CC1)c1ccc(Cl)c(Cl)c1` [Example 6Y], the Ki on NK1 receptor, at NK2 receptor and on NK3 receptor was 0.4 nM throughout.
Regarding `CO/N=C(\CN(C)C(=O)c1cc(Cl)cc(Cl)c1)[C@H](CCN1CCC(N2CCCN(CC(=O)N3CCOCC3)C2=O)CC1)c1ccc(Cl)c(Cl)c1` [Example 6E], the results for the Ki at NK1 receptor, at NK2 receptor and on NK3 receptor were 1 nM, 1 nM and 1.5 nM, respectively.
`CO/N=C(\CN(C)C(=O)c1cc(Cl)cc(Cl)c1)C(CCN1CCC(N2CC(=O)N[C@@H](CC(=O)O)C2=O)CC1)c1ccc(Cl)c(Cl)c1` (stereo partly shown) [Example 10B]: the Ki at NK1 receptor turned out to be 2.9 nM; at NK2 receptor it was 28.9 nM; at NK3 receptor, 34.6 nM.
Regarding `CO/N=C(\CN(C)C(=O)c1cc(Cl)cc(Cl)c1)C(CCN1CCC(N2CCNCC2=O)CC1)c1ccc(Cl)c(Cl)c1` (stereo not shown) [Example 8A], the results for the Ki at NK1 receptor, on NK2 receptor and on NK3 receptor were 1.1 nM, 0.7 nM and 1.2 nM, respectively.
